Assay results: ChEMBL document CHEMBL6153025, “Multidrug-resistant bacteria quorum-sensing inhibitors: A particular focus on Pseudomonasaeruginosa” (Eur J Med Chem, 2025)
≈ marks a conversion by molar mass, not a printed value. One block for each molecule: values may come before it.

How the values were obtained:
Pseudomonas aeruginosa [1] = assay: Antivirulence activity against Pseudomonas aeruginosa PAO1 assessed as reduction in hemolysin activity incubated for 1 hr by absorbance based analysis relative to control; format: functional; design: scale not given: the % may be the effect or the level left
Pseudomonas aeruginosa [2] = assay: Antibiofilm activity against Pseudomonas aeruginosa PA21 assessed as reduction in biofilm formation at 1/2 sub-MIC doses incubated for 24 hrs by crystal violet staining based analysis relative to control; format: functional; design: scale not given: the % may be the effect or the level left
Pseudomonas aeruginosa [3] = assay: Antibiofilm activity against Pseudomonas aeruginosa PA21 assessed as reduction in biofilm formation at 1/4 sub-MIC doses incubated for 24 hrs by crystal violet staining based analysis relative to control; format: functional; design: scale not given: the % may be the effect or the level left
Pseudomonas aeruginosa [4] = assay: Antibiofilm activity against Pseudomonas aeruginosa PA24 assessed as reduction in biofilm formation at 1/2 sub-MIC doses incubated for 24 hrs by crystal violet staining based analysis relative to control; format: functional; design: scale not given: the % may be the effect or the level left
Pseudomonas aeruginosa [5] = assay: Antivirulence activity against Pseudomonas aeruginosa PA22 assessed as reduction in pyocyanin production incubated for 1 hr by absorbance based analysis relative to control; format: functional; design: scale not given: the % may be the effect or the level left
Pseudomonas aeruginosa [6] = assay: Antibiofilm activity against Pseudomonas aeruginosa PA23 assessed as reduction in biofilm formation at 1/2 sub-MIC doses incubated for 24 hrs by crystal violet staining based analysis relative to control; format: functional; design: scale not given: the % may be the effect or the level left
Pseudomonas aeruginosa [7] = assay: Antivirulence activity against Pseudomonas aeruginosa PA23 assessed as reduction in protease production incubated for 1 hr by absorbance based analysis relative to control; format: functional; design: scale not given: the % may be the effect or the level left
Pseudomonas aeruginosa [8] = assay: Antibiofilm activity against Pseudomonas aeruginosa PA22 assessed as reduction in biofilm formation at 1/2 sub-MIC doses incubated for 24 hrs by crystal violet staining based analysis relative to control; format: functional; design: scale not given: the % may be the effect or the level left
Pseudomonas aeruginosa [9] = assay: Antibiofilm activity against Pseudomonas aeruginosa PA24 assessed as reduction in biofilm formation at 1/4 sub-MIC doses incubated for 24 hrs by crystal violet staining based analysis relative to control; format: functional; design: scale not given: the % may be the effect or the level left
Pseudomonas aeruginosa [10] = assay: Antibiofilm activity against Pseudomonas aeruginosa PA23 assessed as reduction in biofilm formation at 1/4 sub-MIC doses incubated for 24 hrs by crystal violet staining based analysis relative to control; format: functional; design: scale not given: the % may be the effect or the level left
Pseudomonas aeruginosa [11] = assay: Antibiofilm activity against Pseudomonas aeruginosa PA14 assessed as reduction in biofilm formation at 1/2 sub-MIC doses incubated for 24 hrs by crystal violet staining based analysis relative to control; format: functional; design: scale not given: the % may be the effect or the level left
Pseudomonas aeruginosa [12] = assay: Antivirulence activity against Pseudomonas aeruginosa PA21 assessed as reduction in protease production incubated for 1 hr by absorbance based analysis relative to control; format: functional; design: scale not given: the % may be the effect or the level left
Pseudomonas aeruginosa [13] = assay: Antivirulence activity against Pseudomonas aeruginosa PA22 assessed as reduction in protease production incubated for 1 hr by absorbance based analysis relative to control; format: functional; design: scale not given: the % may be the effect or the level left
Pseudomonas aeruginosa [14] = assay: Antivirulence activity against Pseudomonas aeruginosa PAO1 assessed as reduction in pyocyanin production incubated for 1 hr by absorbance based analysis relative to control; format: functional; design: scale not given: the % may be the effect or the level left
Pseudomonas aeruginosa [15] = assay: Antivirulence activity against Pseudomonas aeruginosa PAO1 assessed as reduction in protease production incubated for 1 hr by absorbance based analysis relative to control; format: functional; design: scale not given: the % may be the effect or the level left
Pseudomonas aeruginosa [16] = assay: Antivirulence activity against Pseudomonas aeruginosa PA24 assessed as reduction in hemolysin activity incubated for 1 hr by absorbance based analysis relative to control; format: functional; design: scale not given: the % may be the effect or the level left
Pseudomonas aeruginosa [17] = assay: Antivirulence activity against Pseudomonas aeruginosa PA23 assessed as reduction in pyocyanin production incubated for 1 hr by absorbance based analysis relative to control; format: functional; design: scale not given: the % may be the effect or the level left
Pseudomonas aeruginosa [18] = assay: Antivirulence activity against Pseudomonas aeruginosa PA22 assessed as reduction in hemolysin activity incubated for 1 hr by absorbance based analysis relative to control; format: functional; design: scale not given: the % may be the effect or the level left
Pseudomonas aeruginosa [19] = assay: Antibiofilm activity against Pseudomonas aeruginosa PAO1 assessed as reduction in biofilm formation at 1/4 sub-MIC doses incubated for 24 hrs by crystal violet staining based analysis relative to control; format: functional; design: scale not given: the % may be the effect or the level left
Pseudomonas aeruginosa [20] = assay: Antibiofilm activity against Pseudomonas aeruginosa PA14 assessed as reduction in biofilm formation at 1/4 sub-MIC doses incubated for 24 hrs by crystal violet staining based analysis relative to control; format: functional; design: scale not given: the % may be the effect or the level left
Pseudomonas aeruginosa [21] = assay: Antivirulence activity against Pseudomonas aeruginosa PA14 assessed as reduction in pyocyanin production incubated for 1 hr by absorbance based analysis relative to control; format: functional; design: scale not given: the % may be the effect or the level left
Pseudomonas aeruginosa [22] = assay: Antibiofilm activity against Pseudomonas aeruginosa PAO1 assessed as reduction in biofilm formation at 16 ug/ml incubated for 2 to 4 hrs by crystal violet staining based analysis relative to control; format: functional; design: scale not given: the % may be the effect or the level left; details: dose 16 µg/ml; time 2-4 hrs
Pseudomonas aeruginosa [23] = assay: Antibiofilm activity against Pseudomonas aeruginosa PA22 assessed as reduction in biofilm formation at 1/4 sub-MIC doses incubated for 24 hrs by crystal violet staining based analysis relative to control; format: functional; design: scale not given: the % may be the effect or the level left
Pseudomonas aeruginosa [24] = assay: Antivirulence activity against Pseudomonas aeruginosa PA23 assessed as reduction in hemolysin activity incubated for 1 hr by absorbance based analysis relative to control; format: functional; design: scale not given: the % may be the effect or the level left
Pseudomonas aeruginosa [25] = assay: Antivirulence activity against Pseudomonas aeruginosa PA14 assessed as reduction in hemolysin activity incubated for 1 hr by absorbance based analysis relative to control; format: functional; design: scale not given: the % may be the effect or the level left
Pseudomonas aeruginosa [26] = assay: Antivirulence activity against Pseudomonas aeruginosa PA24 assessed as reduction in protease production incubated for 1 hr by absorbance based analysis relative to control; format: functional; design: scale not given: the % may be the effect or the level left
Pseudomonas aeruginosa [27] = assay: Antibiofilm activity against Pseudomonas aeruginosa PAO1 assessed as reduction in biofilm formation at 1/2 sub-MIC doses incubated for 24 hrs by crystal violet staining based analysis relative to control; format: functional; design: scale not given: the % may be the effect or the level left
Pseudomonas aeruginosa [28] = assay: Antivirulence activity against Pseudomonas aeruginosa PA21 assessed as reduction in hemolysin activity incubated for 1 hr by absorbance based analysis relative to control; format: functional; design: scale not given: the % may be the effect or the level left
Pseudomonas aeruginosa [29] = assay: Antivirulence activity against Pseudomonas aeruginosa PA24 assessed as reduction in pyocyanin production incubated for 1 hr by absorbance based analysis relative to control; format: functional; design: scale not given: the % may be the effect or the level left
Pseudomonas aeruginosa [30] = assay: Antivirulence activity against Pseudomonas aeruginosa PA14 assessed as reduction in protease production incubated for 1 hr by absorbance based analysis relative to control; format: functional; design: scale not given: the % may be the effect or the level left
Pseudomonas aeruginosa [31] = assay: Antivirulence activity against Pseudomonas aeruginosa PA21 assessed as reduction in pyocyanin production incubated for 1 hr by absorbance based analysis relative to control; format: functional; design: scale not given: the % may be the effect or the level left
[32] = biological target: T1, Transcriptional activator protein LasR (Pseudomonas aeruginosa (strain ATCC 15692 / PAO1 / 1C / PRS 101 / LMG12228)) (UniProt P25084); assay: Inhibition of LasR-mediated quorum sensing system in Pseudomonas aeruginosa PAO1 at 128 ug/ml relative to control; details: dose 128.0 µg/ml
T1 sequence (whole entry): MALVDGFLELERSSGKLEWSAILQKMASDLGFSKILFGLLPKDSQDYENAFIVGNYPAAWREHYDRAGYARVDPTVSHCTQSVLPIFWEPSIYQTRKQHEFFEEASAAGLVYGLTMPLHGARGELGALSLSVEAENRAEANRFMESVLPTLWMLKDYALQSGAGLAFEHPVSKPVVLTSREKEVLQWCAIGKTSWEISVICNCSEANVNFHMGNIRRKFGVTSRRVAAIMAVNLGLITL

[33] = Inhibition of quorum sensing system in Pseudomonas aeruginosa PA14 assessed as inhibition of pyocyanin production at 128 ug/ml relative to control; details: dose 128.0 µg/ml
Pseudomonas aeruginosa [34] = assay: Antibiofilm activity against Pseudomonas aeruginosa PA14 assessed as inhibition of biofilm formation at 16 ug/ml incubated for 24 hrs by microscopic analysis relative to control; format: functional; design: scale not given: the % may be the effect or the level left; details: dose 16 µg/ml
Pseudomonas aeruginosa [35] = assay: Antibiofilm activity against Pseudomonas aeruginosa PAO1 assessed as inhibition of biofilm formation at 32 ug/ml incubated for 8 hrs by crystal violet staining based assay relative to control; format: functional; design: scale not given: the % may be the effect or the level left; details: dose 32 µg/ml
[36] = Inhibition of quorum sensing system in Pseudomonas aeruginosa PAO1 expressing lasB-gfp assessed as reduction fluorescence intensity measured for 12 hrs by GFP reporter strain assay
Pseudomonas aeruginosa [37] = assay: Antivirulence activity against Pseudomonas aeruginosa PAO1 assessed as inhibition of pyocyanin production at 25 ug/ml incubated for 16 hrs under agitation by photometric analysis relative to control; format: functional; design: scale not given: the % may be the effect or the level left; details: dose 25 µg/ml
Pseudomonas aeruginosa [38] = assay: Antibacterial activity against Pseudomonas aeruginosa PAO1 assessed as bacterial growth inhibition measured after 18 hrs by CLSI protocol based two-fold serial microdilution method; format: functional
Pseudomonas aeruginosa [39] = assay: Anti-virulence effect in Pseudomonas aeruginosa PAO1 assessed as inhibition of rhamnolipid production at 10 uM relative to control; format: functional; design: scale not given: the % may be the effect or the level left
Pseudomonas aeruginosa [40] = assay: Antivirulence activity against Pseudomonas aeruginosa PAO1 assessed as inhibition of pyocyanin production at 16 ug/ml relative to control; format: functional; design: scale not given: the % may be the effect or the level left; details: dose 16 µg/ml

SMILES: COC(=O)c1cc(O)c(O)c(O)c1 [GALLIC ACID METHYL ESTER]
- Activity (Pseudomonas aeruginosa [1]): 63.9%
- Activity (Pseudomonas aeruginosa [2]): 83.3%
- Activity (Pseudomonas aeruginosa [3]): 77.8%
- Activity (Pseudomonas aeruginosa [4]): 83.7%
- Activity (Pseudomonas aeruginosa [5]): 80.9%
- Activity (Pseudomonas aeruginosa [6]): 83.8%
- Activity (Pseudomonas aeruginosa [7]): 27.6%
- Activity (Pseudomonas aeruginosa [8]): 82.2%
- Activity (Pseudomonas aeruginosa [9]): 78.1%
- Activity (Pseudomonas aeruginosa [10]): 77.9%
- Activity (Pseudomonas aeruginosa [11]): 81.6%
- Activity (Pseudomonas aeruginosa [12]): 53.6%
- Activity (Pseudomonas aeruginosa [13]): 47.3%
- Activity (Pseudomonas aeruginosa [14]): 68.1%
- Activity (Pseudomonas aeruginosa [15]): 40.3%
- Activity (Pseudomonas aeruginosa [16]): 55.7%
- Activity (Pseudomonas aeruginosa [17]): 79.6%
- Activity (Pseudomonas aeruginosa [18]): 57.8%
- Activity (Pseudomonas aeruginosa [19]): 77.6%
- Activity (Pseudomonas aeruginosa [20]): 78.6%
- Activity (Pseudomonas aeruginosa [21]): 66.5%
- Activity (Pseudomonas aeruginosa [22]): 63%
- Activity (Pseudomonas aeruginosa [23]): 81.5%
- Activity (Pseudomonas aeruginosa [24]): 49.8%
- Activity (Pseudomonas aeruginosa [25]): 60.5%
- Activity (Pseudomonas aeruginosa [26]): 42.4%
- Activity (Pseudomonas aeruginosa [27]): 83%
- Activity (Pseudomonas aeruginosa [28]): 63.2%
- Activity (Pseudomonas aeruginosa [29]): 78.7%
- Activity (Pseudomonas aeruginosa [30]): 40.1%
- Activity (Pseudomonas aeruginosa [31]): 87.3%

- inhibition [32]: 45.1%
- inhibition [33]: 75%
SMILES: O=C(CN1CCOCC1)Nc1cccc([N+](=O)[O-])c1
- Activity (Pseudomonas aeruginosa [34]): 77%

- IC50 [36]: 3.53 µM
SMILES: [O-][S+](Cc1ccc(Cl)cc1)c1nnc(-c2ccccc2)o1 (stereo not given)
- Activity (Pseudomonas aeruginosa [35]): 46.8%

SMILES: Oc1ncnc2[nH]ncc12 [ALLOPURINOL]
- Activity (Pseudomonas aeruginosa [37]): 70%
- MIC (Pseudomonas aeruginosa [38]): 2 µg/mL (≈ 14.7 µM)
- Activity (Pseudomonas aeruginosa [39]): 74%
- Activity (Pseudomonas aeruginosa [40]): 74%
